Results reported in publication PMC11747885, “Potent inhibitors of the human RNA ligase Rlig1 highlights its role in RNA integrity maintenance under oxidative cellular stress” (Chemical Science, 2025).
Values joined by “and” are separate entries in the source; they are usually repeats but may differ in a detail not shown here. Equal values may be shown once. Read-outs that look alike come from different tables or passages of the source.

How the values were obtained:
Hsp90-TPR2A = molecular target: Hsp90-TPR2A; set-up: method as in MedChemExpress; conditions: interaction of Hsp90-TPR2A; ref MedChemExpress; cited from earlier work
Rlig1-AMP = molecular target: T1, Rlig1-AMP (Homo sapiens, UniProt Q8N999); test: FRET-based high-throughput screening of inhibitors for Rlig1-AMP; format: biochemical; conditions: for 1-D Distance: difference of raw data w/o and w enzyme; for Raw data [w Enyzm]: with enzyme; for Raw data [w/o Enzym]: without enzyme
T1 construct: made in house; host or cells: E. coli BL21 (DE3), pET15b-Rlig1

FAAH [1] = test system: FAAH; set-up: method as in MedChemExpress; conditions: mouse FAAH; ref MedChemExpress; cited from earlier work
[2] = in DMSO; ref MedChemExpress; cited from earlier work
FAAH [3] = test system: FAAH; set-up: method as in MedChemExpress; conditions: human FAAH; ref MedChemExpress; cited from earlier work
FAAH [4] = test system: FAAH; set-up: method as in MedChemExpress; conditions: rat FAAH; ref MedChemExpress; cited from earlier work
G9a = test system: G9a; set-up: method as in MedChemExpress [1]; conditions: ref MedChemExpress [1]; cited from earlier work
NO production = test system: NO production; set-up: method as in MedChemExpress; conditions: ref MedChemExpress; cited from earlier work
[5] = DMSO; ultrasonic/warming; ref MedChemExpress; cited from earlier work
ERβ = test system: ERβ; set-up: method as in MedChemExpress; conditions: ref MedChemExpress; read-out: IC50, binding to ERβ; cited from earlier work
EGFR = test system: EGFR; set-up: method as in MedChemExpress; conditions: ref MedChemExpress; cited from earlier work
factor IXaβ (FIXa) = molecular target: factor IXaβ (FIXa); set-up: method as in MedChemExpress [1][2][3]; conditions: ref MedChemExpress [1][2][3]; cited from earlier work
Rift Valley virus = conditions: cited from earlier work
HIV-1 = conditions: ref MedChemExpress; cited from earlier work
HCV = test system: HCV; set-up: method as in MedChemExpress; conditions: ref MedChemExpress; cited from earlier work
Dengue Fever virus = test system: Dengue Fever virus; set-up: method as in MedChemExpress; conditions: ref MedChemExpress; cited from earlier work
Ebola virus = conditions: cited from earlier work
[6] = molecular target: phosphodiesterase 3 (PDE3); set-up: method as in MedChemExpress; conditions: ref MedChemExpress; cited from earlier work
[7] = molecular target: phosphodiesterase 4 (PDE4); set-up: method as in MedChemExpress; conditions: ref MedChemExpress; cited from earlier work
[8] = molecular target: phosphodiesterase 5 (PDE5); set-up: method as in MedChemExpress; conditions: ref MedChemExpress; cited from earlier work
[9] = molecular target: Acyl-coenzyme A: cholesterol acyltransferase (ACAT); set-up: method as in MedChemExpress [1]; conditions: rat liver microsomal ACAT; ref MedChemExpress [1]; cited from earlier work
Cdc25C = test system: Cdc25C; set-up: method as in MedChemExpress [1]; conditions: ref MedChemExpress [1]; cited from earlier work
Cdc25A = test system: Cdc25A; set-up: method as in MedChemExpress [1]; conditions: ref MedChemExpress [1]; cited from earlier work
Cdc25B = test system: Cdc25B; set-up: method as in MedChemExpress [1]; conditions: ref MedChemExpress [1]; cited from earlier work
[10] = set-up: method as in MedChemExpress [1]; conditions: ref MedChemExpress [1]; read-out: IC50 DPPH radical scavenging; cited from earlier work
[11] = set-up: method as in MedChemExpress [1]; conditions: ref MedChemExpress [1]; read-out: IC50 superoxide anion scavenging; cited from earlier work
TLR4 signaling = test system: TLR4 signaling; set-up: method as in MedChemExpress [1][2][3]; conditions: ref MedChemExpress [1][2][3]; cited from earlier work
H+/K+-ATPases = test system: H+/K+-ATPases; set-up: method as in MedChemExpress [1]; conditions: porcine, canine, and human, in vitro; ref MedChemExpress [1]; cited from earlier work
proton transport = test system: proton transport; set-up: method as in MedChemExpress; conditions: ref MedChemExpress; read-out: EC50, inhibition of proton transport; cited from earlier work
ErbB2 = test system: ErbB2; set-up: method as in MedChemExpress; conditions: ref MedChemExpress, cited from earlier work
TrKA = test system: TrKA; set-up: method as in MedChemExpress; conditions: ref MedChemExpress; read-out: IC50, TrKA phosphorylation; cited from earlier work
chymotrypsin = molecular target: chymotrypsin; set-up: method as in MedChemExpress; conditions: ref MedChemExpress; cited from earlier work
[12] = molecular target: Insulin-like Growth Factor 1 Receptor (IGF1R); set-up: method as in MedChemExpress; conditions: ref MedChemExpress; cited from earlier work
NTPDase 1 (CD39) = molecular target: NTPDase 1 (CD39); set-up: method as in MedChemExpress; conditions: ref MedChemExpress; cited from earlier work
NTPDase 3 = molecular target: NTPDase 3; set-up: method as in MedChemExpress; conditions: ref MedChemExpress; cited from earlier work
NTPDase 2 = molecular target: NTPDase 2; set-up: method as in MedChemExpress; conditions: ref MedChemExpress; cited from earlier work
[13] = HTS hits, normalized value (npi)
[14] = sheet HTS hits, MedChemExpress library
[15] = HTS hits, normalised value of 1-D Distance

T1 sequence (Q8N999 whole entry): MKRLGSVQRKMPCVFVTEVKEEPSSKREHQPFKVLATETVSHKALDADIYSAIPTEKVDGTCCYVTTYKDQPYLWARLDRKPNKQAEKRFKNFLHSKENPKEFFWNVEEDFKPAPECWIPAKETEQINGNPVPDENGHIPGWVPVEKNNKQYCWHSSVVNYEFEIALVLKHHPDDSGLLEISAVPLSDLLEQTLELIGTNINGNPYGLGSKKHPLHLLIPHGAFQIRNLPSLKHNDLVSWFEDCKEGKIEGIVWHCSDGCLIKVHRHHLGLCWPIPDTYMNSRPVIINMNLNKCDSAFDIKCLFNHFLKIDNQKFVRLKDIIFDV

Compound | 1-D Distance (Rlig1-AMP; HTS hits) | Raw data [w Enyzm] (Rlig1-AMP; HTS hits) | Raw data [w/o Enzym] (Rlig1-AMP; HTS hits) | 1-D Distance.npi (Rlig1-AMP; [14]) | 1-D Distance (Rlig1-AMP; sheet HTS hits) | Raw data [w Enyzm] (Rlig1-AMP; sheet HTS hits) | Raw data [w/o Enzym] (Rlig1-AMP; sheet HTS hits) | also measured
Cn1nc(-c2ccccc2)nc2c(=O)n(C)c(=O)nc1-2 [3-Phenyltoxoflavin] | 2083 | 15668 | 17751 | – | – | – | – | Kd (Hsp90-TPR2A): 0.585 µM; 1-D Distance.npi (Rlig1-AMP; [13]): 71.558
COc1ccc(-c2coc3cc(O)cc(O)c3c2=O)cc1 [Biochanin A] | – | – | – | 79.7493 | 1536 | 8945 | 10481 | IC50 (FAAH [1]): 1.8 µM; solubility, DMSO [2]: DMSO : ≥ 50 mg/mL (175.90 mM); IC50 (FAAH [3]): 2.4 µM; IC50 (FAAH [4]): 1.4 µM
COc1cc2c(NCC3CCN(C)CC3)cc(-c3ccc(C)o3)nc2cc1OCCCN1CCCC1.Cl.Cl.Cl [CM-579 trihydrochloride] | – | – | – | 80.8725 | 1286 | 6218 | 7504 | IC50 (G9a): […]
CC(/C=C/C=C(\C)C(=O)O[C@@H]1O[C@H](CO)[C@@H](O)[C@H](O)[C@H]1O)=C\C=C\C=C(C)\C=C\C=C(/C)C(=O)O[C@@H]1O[C@H](CO[C@@H]2O[C@H](CO)[C@@H](O)[C@H](O)[C@H]2O)[C@@H](O)[C@H](O)[C@H]1O [Crocin II] | 1772 | 3357 | 5129 | – | – | – | – | 1-D Distance.npi (Rlig1-AMP; [15]): 72.9439; IC50 (NO production): 31.1 µM; solubility, DMSO [5]: 25 mg/mL and 30.68 mM
OC[C@H]1O[C@@H](Oc2cc3c(O)cc(O)cc3[o+]c2-c2cc(O)c(O)c(O)c2)[C@H](O)[C@@H](O)[C@@H]1O.[Cl-] [Delphinidin 3-glucoside (chloride)] | 1749 | 3316 | 5065 | – | – | – | – | 1-D Distance.npi (Rlig1-AMP; [15]): 73.356; IC50 (ERβ): 9.7 µM; IC50 (EGFR): 2.37 µM
CN1CCc2nc(C(=O)N[C@@H]3C[C@@H](C(=O)N(C)C)CC[C@@H]3NC(=O)C(=O)Nc3ccc(Cl)cn3)sc2C1.Cc1ccc(S(=O)(=O)O)cc1.O [Edoxaban (tosylate monohydrate)] | – | – | – | 77.5766 | 1653 | 9167 | – | Ki (factor IXaβ (FIXa)): 41.7 µM
Cc1cc(NCCCN(C)C)c2ccc3c(ccc4c(NCCCN(C)C)cc(C)nc43)c2n1.Cl.Cl.Cl.Cl [FGI-106 (tetrahydrochloride)] | 429 | 7836 | 8265 | – | – | – | – | EC50 (Rift Valley virus): 0.8 µM; EC50 (HIV-1): 0.15 µM; 1-D Distance.npi (Rlig1-AMP; [13]): 96.4905; EC50 (HCV): 0.2 µM; EC50 (Dengue Fever virus): 0.4 to 0.9 µM; EC50 (Ebola virus): 0.1 µM
Cl.O=C1NCC2(CCN(CCc3ccccc3)CC2)O1 [Fenspiride (hydrochloride)] | 1963 | 8551 | 10514 | – | – | – | – | 1-D Distance.npi (Rlig1-AMP; [15]): 70.4519; -log IC50, PDE3 [6]: 3.44; -log IC50, PDE4 [7]: 4.16; -log IC50, PDE5 [8]: ~3.8
CC(C)=CCc1cc([C@@H]2CC(=O)c3ccc(O)c(CC=C(C)C)c3O2)ccc1O [Glabrol] | – | – | – | – | 1660 | 8836 | 10496 | solubility, DMSO [2]: DMSO : 100 mg/mL (254.78 mM; Need ultrasonic); IC50 [9]: 24.6 µM
Cc1ccc(Cn2cc(CNC3=C(Cl)C(=O)c4cccnc4C3=O)nn2)cc1 [M2N12] | – | – | – | 96.6155 | 465 | 6859 | 7324 | IC50 (Cdc25C): 0.09 µM; IC50 (Cdc25A): 0.53 µM; solubility, DMSO [2]: DMSO : 11.11 mg/mL (28.21 mM; ultrasonic and warming and heat to 67°C); IC50 (Cdc25B): 1.39 µM
O=C1O[C@@H]2[C@@H](O)[C@H](O)[C@@H](CO)O[C@H]2c2c1cc(O)c(O)c2O [Norbergenin] | – | – | – | – | 1829 | 9099 | 10928 | IC50 [10]: 13 µM; solubility, DMSO [2]: DMSO : 125 mg/mL (397.79 mM; Need ultrasonic); IC50 [11]: 32 µM
C/C(=N\N=C(N)N)c1cc(NC(=O)CCCCCCCCC(=O)Nc2cc(/C(C)=N/N=C(N)N)cc(/C(C)=N/N=C(N)N)c2)cc(/C(C)=N/N=C(N)N)c1.Cl.Cl.Cl.Cl [Semapimod (tetrahydrochloride)] | – | – | – | 101.371 | 217 | 4067 | 3850 | IC50 (TLR4 signaling): ~0.3 µM
Cc1nc2cc(C(=O)N(C)C)cc(O[C@H]3CCOc4cc(F)cc(F)c43)c2[nH]1 [Tegoprazan] | – | – | – | – | 1843 | 8992 | 10835 | solubility, DMSO [2]: DMSO : 100 mg/mL (258.14 mM; Need ultrasonic); IC50 (H+/K+-ATPases): 0.29 to 0.52 µM
CCCCCCCCCCCCCCCC[N+](C)(C)CCN(Cc1ccc(OC)cc1)c1ncccn1.[Br-] [Thonzonium (bromide)] | 365 | 4968 | 4603 | – | – | – | – | EC50 (proton transport): 69 µM; 1-D Distance.npi (Rlig1-AMP; [15]): 101.053
CC(C)(C)c1cc(/C=C(\C#N)C(N)=S)cc(C(C)(C)C)c1O [Tyrphostin AG 879] | 1883 | 2204 | 4087 | – | – | – | – | IC50 (ErbB2; ErbB2): 1 µM; selectivity to ErbB2 than EGFR (ErbB2; ErbB2 vs EGFR): ≥ 500 fold; IC50 (TrKA): 10 µM
Aprotinin | 1367 | 37995 | 39362 | – | – | – | – | 1-D Distance.npi (Rlig1-AMP; [15]): 82.3934; Ki (chymotrypsin): 0.009 µM
Indirubin Derivative E804 | – | – | – | 87.7994 | 1070 | 1875 | 2945 | IC50 [12]: 0.65 µM
Sodium metatungstate | 673 | 16164 | 15491 | – | – | – | – | Ki (NTPDase 1 (CD39)): 2.58 µM; Ki (NTPDase 3): 3.26 µM; Ki (NTPDase 2): 28.8 µM; 1-D Distance.npi (Rlig1-AMP; [13]): 95.6511
